Structures are written as SMILES.

A short description of this data set: HPLC determination of degradation products in particles after SEDS processing. In kind it is physicochemical. How it is done: High-Perfomance Liquid Chromatography (HPLC)
Identification and quantification of degradation products were determined using HPLC technique.
The amount of degradation products was calculated from the chromatograms as area-%. Thus, 0.2% area-procent means that the amount of degradation products was 0.2% of the initial weight of the substance.
Particles were prepared in a modified SEDS equipment (Bradford Particle Design Limited, UK) from a solution, containing substance(s).
The solution and the antisolvent were introduced into a coaxial nozzle, which was located inside a pressure vessel. Under controlled pressure and temperature conditions, the antisolvent extracts the solvent from the solution droplets. The concentration of the solute in the droplets is thereby increased, leading to rapid particle formation. The particles were collected in a vessel, while the antisolvent and the extracted solvent emerged through a back pressure regulator.
The nozzle used was a two component nozzle, with an opening of 0.2 mm in diameter. In the two component nozzle the supercritical fluid passes through the inner passage, while the solution passes through the outer passage.
With `COc1ccc2[n-]c([S@@+]([O-])Cc3ncc(C)c(OC)c3C)nc2c1.COc1ccc2[n-]c([S@@+]([O-])Cc3ncc(C)c(OC)c3C)nc2c1.[Mg+2]` [Experiment 2-1b, (S)-omeprazole magnesium], the Degradation products was 0.3 a % and the “degradation products (HPLC)” value is 0.3 area %.
For `COc1ccc2[n-]c([S+]([O-])Cc3ncc(C)c(OC)c3C)nc2c1.COc1ccc2[n-]c([S+]([O-])Cc3ncc(C)c(OC)c3C)nc2c1.[Mg+2]` (stereo not shown) [Experiment 1-1b, Omeprazole magnesium], the Degradation products turned out to be 0.2 a % and the “degradation products (HPLC)” value is 0.2 area %.
Regarding `COc1ccc2[n-]c([S+]([O-])Cc3ncc(C)c(OC)c3C)nc2c1.COc1ccc2[n-]c([S+]([O-])Cc3ncc(C)c(OC)c3C)nc2c1.[Mg+2]` (stereo not shown) [Experiment 1-3a, Omeprazole magnesium], the Degradation products amounted to 0.4 a % and the “degradation products (HPLC)” value is 0.4 area %.
As for `COc1ccc2[n-]c([S+]([O-])Cc3ncc(C)c(OC)c3C)nc2c1.COc1ccc2[n-]c([S+]([O-])Cc3ncc(C)c(OC)c3C)nc2c1.[Mg+2]` (stereo not shown) [Experiment 1-1a, Omeprazole magnesium], the Degradation products came out at 0.5 a % and the “degradation products (HPLC)” value is 0.5 area %.
The corresponding values for `COc1ccc2[n-]c([S+]([O-])Cc3ncc(C)c(OC)c3C)nc2c1.COc1ccc2[n-]c([S+]([O-])Cc3ncc(C)c(OC)c3C)nc2c1.[Mg+2]` (stereo not shown) [Experiment 1-2b, Omeprazole magnesium] are 0.2 a % and 0.2 area %.
The corresponding values for `COc1ccc2[n-]c([S+]([O-])Cc3ncc(C)c(OC)c3C)nc2c1.COc1ccc2[n-]c([S+]([O-])Cc3ncc(C)c(OC)c3C)nc2c1.[Mg+2]` (stereo not shown) [Experiment 1-4b, Omeprazole magnesium] are 0.1 a % and 0.1 area %.
As for `COc1ccc2[n-]c([S@@+]([O-])Cc3ncc(C)c(OC)c3C)nc2c1.COc1ccc2[n-]c([S@@+]([O-])Cc3ncc(C)c(OC)c3C)nc2c1.[Mg+2]` [Experiment 2-1a, (S)-omeprazole magnesium], the Degradation products came to 2.1 a % and the “degradation products (HPLC)” value was determined as 2.1 area %.
`COc1ccc2[n-]c([S+]([O-])Cc3ncc(C)c(OC)c3C)nc2c1.COc1ccc2[n-]c([S+]([O-])Cc3ncc(C)c(OC)c3C)nc2c1.[Mg+2]` (stereo not shown) [Experiment 1-3b, Omeprazole magnesium]: the Degradation products is given as 0.2 a % and the “degradation products (HPLC)” value came out at 0.2 area %.

The values above are taken from patent US6596315B1, “Method of producing drug particles” (AstraZeneca AB, priority 1998, dated 2003).
